Values of other authors in patent publication US20130281457A1, “PHARMACEUTICAL COMPOSITIONS COMPRISING 5-CHLORO-N-(-METHYL)-2-THIOPHENCARBOXAMID” (Ratiopharm GmbH, priority 2008, published 2013).

solubility in water: only limited solubility in water
SMILES: O=C(NC[C@H]1CN(c2ccc(N3CCOCC3=O)cc2)C(=O)O1)c1ccc(Cl)s1 [Compound I, 5-Chloro-N-({(5S)-2-oxo-3-[4-(3-oxo-4-morpholinyl)-phenyl]-1,3-oxazolidin-5-yl}-methyl)-2-thiophencarboxamid]
